Patent EP3797781A1, “USE OF EC-7072 AND SYNERGIC COMPOSITIONS THEREOF IN TREATMENT OF CHRONIC LYMPHOCYTIC LEUKEMIA” (priority 2019, dated 2021)

What was measured:
leukemia cells = assay: Absolute leukemia cell number quantification by flow cytometry in PBMCs from patients with CLL; format: cell-based, human; settings: 0 - 400 nM, 24 hours; PBMCs from patients with CLL (n = 13); dose-dependent; Figure 1A
Description: (§1) To evaluate absolute cell numbers, an equal volume of PKH26 reference microbeads (Sigma-Aldrich) was added to each sample after staining for immune subset identification. Microbeads (5x10^3) were acquired by flow cytometry and absolute numbers of each immune population within the sample were calculated. Normalized percentage values were calculated considering the control (DMSO)-treated cells as 100%.
The in vitro cytotoxic activity of EC-7072 against primary CLL cells was assessed by: • (i) incubating PBMCs isolated from patients with CLL (n = 13) following treatment with increasing concentrations of EC-7072 (0 - 400 nM) for 24 hours. Numbers of leukemia cells were evaluated by flow cytometry and normalized to their respective control (DMSO) condition for each individual patient to obtain percentage of leukemia cells (Figure 1A); • (ii) incubating PBMCs from patients with CLL (n = 10) with or without EC-7072 (100-400 nM) for 24 hours. Viability of leukemia cells was determined by cytofluorometric assessment of DiOC6(3)/PI staining and normalized to their respective control condition to obtain percentage viability (Figure 1B); • (iii) incubating PBMCs from patients with CLL (n = 10) with increasing concentrations of EC-7072 (0 - 400 nM) for 24 hours. […]

NK cells (CD3^-CD56^+) = assay: NK cell numbers, viability and apoptosis in PBMCs (flow cytometry, DiOC6(3)/PI staining); format: cell-based, human
Description: as §1
Cell viability and apoptosis were evaluated by double-staining with the mitochondrial inner transmembrane potential (ΔΨm)-sensitive dye DiOC6(3) (3,3'-dihexyloxacarbocyanine iodide; Sigma-Aldrich) and the exclusion dye propidium iodide (PI; Immunostep), allowing identification of apoptotic [DiOC6(3)^low PI^-] and dead [PI^+] cells as per Proc. Natl. Acad. Sci. U.S.A. (2014) 111(8):3020-3025 and Methods Mol. Biol. (2016) 1419:1-16. Briefly, PBMCs were resuspended in culture medium containing 20 nM DiOC6(3) and incubated for 30 minutes at 37 °C. Then, PI (1 µg/mL) was added and cells were further incubated for 10 minutes at room temperature (RT). Cells were analyzed by flow cytometry considering DiOC6(3)^+PI^- cells as viable. In some experiments, apoptosis was evaluated by staining with Annexin V/PI. Thus, PBMCs were incubated in Annexin V binding buffer containing 5 µg/mL Annexin V-FITC (Biolegend) for 15 minutes at RT and PI (1 µg/mL) was subsequently added. Data were normalized to the untreated control as a percentage. Only samples with at least 60% of viable cells (DiOC6(3)^+; Annexin V^-) in the control (DMSO) condition were employed in this study.
The effect of EC-7072 toward healthy immune subsets, T lymphocytes and natural killer (NK) cells, which are chronically exposed to leukemia cells in the peripheral blood of patients with CLL was assessed by: • (i) incubating PBMCs isolated from patients with CLL (n = 10) following treatment with increasing concentrations of EC-7072 (0 - 400 nM) for 24 hours. Numbers of T cells (CD3^+CD56^-) (Figure 2A) and NK cells (CD3^-CD56^+) (Figure 2B) were evaluated by flow cytometry and normalized to their respective control (DMSO) condition for each individual patient to obtain percentage of relative number of T cells and NK cells, respectively; • (ii) incubating PBMCs isolated from patients with CLL (n = 6 - 10) following treatment with increasing concentrations of EC-7072 (0 - 400 nM) for 24 hours. Viability of immune subsets (leukemia cells, T cells and NK cells) was determined by cytofluorometric assessment of DiOC6(3)/PI staining and normalized to their respective control (DMSO) condition for each individual patient to obtain percentage of viable [DiOC6(3)^+] cells (Figures 2C and 2D); • (iii) incubating PBMCs isolated from patients with CLL (n = 11) following treatment with DMSO or EC-7072 (200 nM) for 24 hours. Numbers of CD4^+ cells (Figure 2E) and CD8^+ T cells (Figure 2F) were evaluated by flow cytometry and normalized to their respective control (DMSO) condition for each individual experiment; • (iv) incubating PBMCs isolated from healthy donors (n = 15) following treatment with EC-7072 (200 nM) for 24 hours. […]

CO[C@@H]([C@@H]1Cc2cc3cc(O[C@H]4C[C@@H](O[C@H]5C[C@@H](O)[C@H](O)[C@@H](C)O5)[C@H](O)[C@@H](C)O4)c(C)c(O)c3c(O)c2C(=O)[C@H]1O[C@H]1C[C@@H](O[C@H]2C[C@@H](O[C@H]3C[C@](C)(O)[C@H](O)[C@@H](C)O3)[C@@H](O)[C@@H](C)O2)[C@H](O)[C@@H](C)O1)[C@@H](O)C(C)=O [EC-7072, mithramycin SK]
leukemia cell numbers (leukemia cells): significantly decreased | ratio of apoptosis in NK cells relative to NK cell death (NK cells (CD3^-CD56^+); 200 nM, 24 hours, PBMCs from healthy donors (n = 4), Figure 2R): far lower ratio of apoptosis in NK cells relative to NK cell death than does EC-7073 | viability of NK cells, comparison of mithralogs (NK cells (CD3^-CD56^+); 200 nM, 24 hours, PBMCs from healthy donors (n = 10), Figure 2O): not exhibit toxicity | cell numbers and viability of NK cells (NK cells (CD3^-CD56^+); 200 nM, 24 hours, PBMCs from healthy donors (n = 15), compared with PBMCs from patients with CLL): comparable effects | NK cell survival (NK cells (CD3^-CD56^+); 200 nM, 24 hours, PBMCs from patients with CLL): only slightly altered | toxicity against NK cells compared with fludarabine (NK cells (CD3^-CD56^+); EC-7072 200 nM 24 hours vs fludarabine 10 µM 24 hours, PBMCs from patients with CLL (n = 6 - 8), Figure 4F): significantly less toxic than fludarabine | toxicity against NK cells compared with leukemia cells (NK cells (CD3^-CD56^+); high doses (400 nM), 24 hours, PBMCs from patients with CLL): significantly less toxic against NK cells than leukemia cells
